Where a name gives a salt, the structure may show the parent alone. Read-outs that look alike come from different tables or passages of the source.
Key:
[1] = tested on: MHV (strain MHV-A59); conditions: L929 cells
[2] = tested on: human coronavirus OC43; test: microbe, parasite or virus in culture; format: cell-based; conditions: Betacoronavirus 1, OC43, MRC5, 120 h, MRC-5 cells, 5 days post infection
[3] = target: SARS-CoV E protein (Severe acute respiratory syndrome coronavirus, UniProt P59637); format: cell-based
[4] = target: Vpu protein (Human immunodeficiency virus type 1 group M subtype B, UniProt P05919); conditions: halo of growth score between zero and six; XL1-blue E. coli with pPL-Vpu, no adenine, 37° C.
[5] = target: 229E-CoV E-protein (Human coronavirus 229E, UniProt P19741); test: Bacterial bio-assay for 229E-CoV E-protein; conditions: halo of growth score; E. coli expressing E protein at 37° C.

N=C(N)NC(=O)/C=C/c1ccc(Cl)cc1Cl [2,4-dichlorocinnamolyguanidine]
Percent reduction in Plaque number/# experiments ([1]; 1 uM): 43/1%
Percent reduction in Plaque number/# experiments ([1]; 10 uM): 73/1%
Percent reduction in Plaque number/# experiments ([1]; 20 uM): 76/1%
inhibition at 2.5 µM [2]: 36%
SARS E protein Inhibition (score/# of times tested) [3]: 0.63/2 score
Vpu Inhibition (score/# of times tested) [4]: 0.63/2 score

N=C(N)NC(=O)/C=C/c1c(Cl)cccc1Cl [2,6-dichlorocinnamoylguanidine]
229E E protein Inhibition (score) [5]: 1.0 score
Percent reduction in Plaque number/# experiments ([1]; 1 uM): 40/1%
Percent reduction in Plaque number/# experiments ([1]; 10 uM): 70/1%
Percent reduction in Plaque number/# experiments ([1]; 20 uM): 91/1%
inhibition at 2.5 µM [2]: 27%
SARS E protein Inhibition (score/# of times tested) [3]: 2.25/1 score
Vpu Inhibition (score/# of times tested) [4]: 2.88/2 score

N=C(N)NC(=O)/C=C/c1ccc(Cl)c(Cl)c1 [3,4-dichlorocinnamoylguanidine]
229E E protein Inhibition (score) [5]: 4.4 score
Percent reduction in Plaque number/# experiments ([1]; 1 uM): 50/2%
Percent reduction in Plaque number/# experiments ([1]; 10 uM): 96/1%
Percent reduction in Plaque number/# experiments ([1]; 20 uM): 91/2%
inhibition at 2.5 µM [2]: 90%
SARS E protein Inhibition (score/# of times tested) [3]: 4.15/2 score
Vpu Inhibition (score/# of times tested) [4]: 2.9/3 score

N=C(N)NC(=O)/C=C/c1cccc(OC(F)(F)F)c1 [3-(trifluoromethoxy)cinnamoylguanidine]
229E E protein Inhibition (score) [5]: 4.1 score
Percent reduction in Plaque number/# experiments ([1]; 1 uM): 41/2%
Percent reduction in Plaque number/# experiments ([1]; 10 uM): 90/3%
Percent reduction in Plaque number/# experiments ([1]; 20 uM): 100/1%
inhibition at 2.5 µM [2]: 4%
SARS E protein Inhibition (score/# of times tested) [3]: 2.71/1 score
Vpu Inhibition (score/# of times tested) [4]: 2.44/2 score

CCOc1ccc(/C=C/C(=O)NC(=N)N)cc1 [4-ethoxycinnamoylguanidine]
229E E protein Inhibition (score) [5]: 0.1 score
Percent reduction in Plaque number/# experiments ([1]; 1 uM): 40/1%
Percent reduction in Plaque number/# experiments ([1]; 10 uM): 92/1%
Percent reduction in Plaque number/# experiments ([1]; 20 uM): 96/1%
SARS E protein Inhibition (score/# of times tested) [3]: 2.48/2 score
Vpu Inhibition (score/# of times tested) [4]: 0.69/2 score

N=C(N)NC(=O)/C=C/c1ccc(F)cc1 [4-fluorocinnamoylguanidine]
229E E protein Inhibition (score) [5]: 0.4 score
Percent reduction in Plaque number/# experiments ([1]; 1 uM): 20/1%
Percent reduction in Plaque number/# experiments ([1]; 10 uM): 83/1%
Percent reduction in Plaque number/# experiments ([1]; 20 uM): 86/1%
SARS E protein Inhibition (score/# of times tested) [3]: 1.25/1 score
Vpu Inhibition (score/# of times tested) [4]: 1.1/2 score

CC(C)c1ccc(/C=C/C(=O)NC(=N)N)cc1 [4-isopropylcinnamoylguanidine]
229E E protein Inhibition (score) [5]: 4.9 score
Percent reduction in Plaque number/# experiments ([1]; 1 uM): 41/3%
Percent reduction in Plaque number/# experiments ([1]; 10 uM): 93/3%
Percent reduction in Plaque number/# experiments ([1]; 20 uM): 95/3%
inhibition at 2.5 µM [2]: 68%
SARS E protein Inhibition (score/# of times tested) [3]: 3.16/2 score
Vpu Inhibition (score/# of times tested) [4]: 1.4/2 score

Cc1ccc(/C=C/C(=O)NC(=N)N)cc1 [4-methylcinnamoylguanidine]
229E E protein Inhibition (score) [5]: 0.3 score
Percent reduction in Plaque number/# experiments ([1]; 1 uM): 20/1%
Percent reduction in Plaque number/# experiments ([1]; 10 uM): 89/1%
Percent reduction in Plaque number/# experiments ([1]; 20 uM): 93/1%
SARS E protein Inhibition (score/# of times tested) [3]: 1.25/1 score
Vpu Inhibition (score/# of times tested) [4]: 2.1/2 score

N=C(N)NC(=O)/C=C/c1ccc(-c2ccccc2)cc1 [4-phenylcinnamoylguanidine]
229E E protein Inhibition (score) [5]: 1.0 score
Percent reduction in Plaque number/# experiments ([1]; 1 uM): 21/3%
Percent reduction in Plaque number/# experiments ([1]; 10 uM): 36/1%
Percent reduction in Plaque number/# experiments ([1]; 20 uM): 53/1%
SARS E protein Inhibition (score/# of times tested) [3]: 2.75/2 score
Vpu Inhibition (score/# of times tested) [4]: 1.1/2 score

N=C(N)NC(=O)/C=C/C=C/c1cccc(Br)c1 [5-(3′-bromophenyl)penta-2,4-dienoylguanidine]
229E E protein Inhibition (score) [5]: 0.3 score
Percent reduction in Plaque number/# experiments ([1]; 1 uM): 66/1%
Percent reduction in Plaque number/# experiments ([1]; 10 uM): 99/2%
SARS E protein Inhibition (score/# of times tested) [3]: 0.5/1 score
Vpu Inhibition (score/# of times tested) [4]: 2.5/2 score

NC(N)=NC(=O)c1nc(Cl)c(Nc2ccc(F)cc2)nc1N [5-(4-fluorophenyl)amiloride]
229E E protein Inhibition (score) [5]: 1.8 score
Percent reduction in Plaque number/# experiments ([1]; 1 uM): 16/1%
Percent reduction in Plaque number/# experiments ([1]; 10 uM): 25/1%
Percent reduction in Plaque number/# experiments ([1]; 20 uM): 4/1%
SARS E protein Inhibition (score/# of times tested) [3]: 1.38/1 score
Vpu Inhibition (score/# of times tested) [4]: 0.4/6 score

CN(C)c1nc(N)c(C(=O)N=C(N)N)nc1Cl [5-(N,N-Dimethyl)amiloride hydrochloride]
229E E protein Inhibition (score) [5]: 1.3 score
Percent reduction in Plaque number/# experiments ([1]; 1 uM): 17/4%
Percent reduction in Plaque number/# experiments ([1]; 10 uM): 7/4%
Percent reduction in Plaque number/# experiments ([1]; 20 uM): 42/4%
SARS E protein Inhibition (score/# of times tested) [3]: 1.38/2 score
Vpu Inhibition (score/# of times tested) [4]: 0.1/2 score

N=C(N)NC(=O)/C=C/c1cc(Br)ccc1F [5-bromo-2-fluorocinnamoylguanidine]
229E E protein Inhibition (score) [5]: 1.4 score
Percent reduction in Plaque number/# experiments ([1]; 1 uM): 31/1%
Percent reduction in Plaque number/# experiments ([1]; 10 uM): 81/2%
Toxic (noted in place of plaque reduction) ([1]; 20 uM): Toxic
SARS E protein Inhibition (score/# of times tested) [3]: 2.00/1 score
Vpu Inhibition (score/# of times tested) [4]: 3.5/2 score

COc1ccc(Br)cc1/C=C/C(=O)NC(=N)N [5-bromo-2-methoxycinnamoylguanidine]
229E E protein Inhibition (score) [5]: 3.6 score
Percent reduction in Plaque number/# experiments ([1]; 1 uM): 66/1%
Percent reduction in Plaque number/# experiments ([1]; 10 uM): 100/1%
inhibition at 2.5 µM [2]: 24%
Vpu Inhibition (score/# of times tested) [4]: 1.9/2 score

CC(C)(C)Nc1nc(N)c(C(=O)N=C(N)N)nc1Cl [5-tert-butylamino-amiloride]
229E E protein Inhibition (score) [5]: 0.3 score
Percent reduction in Plaque number/# experiments ([1]; 1 uM): 34/4%
Percent reduction in Plaque number/# experiments ([1]; 10 uM): 84/4%
Percent reduction in Plaque number/# experiments ([1]; 20 uM): 89/4%
SARS E protein Inhibition (score/# of times tested) [3]: 2.01/2 score
Vpu Inhibition (score/# of times tested) [4]: 0.2/7 score

COc1ccccc1/C=C/C(=O)NC(=N)N [(2-Methoxycinnamoyl)guanidine]
229E E protein Inhibition (score) [5]: 1.1 score
Percent reduction in Plaque number/# experiments ([1]; 1 uM): 23/2%
Percent reduction in Plaque number/# experiments ([1]; 10 uM): 85/2%
Percent reduction in Plaque number/# experiments ([1]; 20 uM): 90/2%
SARS E protein Inhibition (score/# of times tested) [3]: 0.69/2 score
Vpu Inhibition (score/# of times tested) [4]: 1.7/4 score

N=C(N)NC(=O)/C=C/c1cccc(Cl)c1 [(3-Chlorocinnamoyl)guanidine]
229E E protein Inhibition (score) [5]: 0.8 score
Percent reduction in Plaque number/# experiments ([1]; 1 uM): 39/2%
Percent reduction in Plaque number/# experiments ([1]; 10 uM): 86/2%
Percent reduction in Plaque number/# experiments ([1]; 20 uM): 94/1%
SARS E protein Inhibition (score/# of times tested) [3]: 3.87/3 score
Vpu Inhibition (score/# of times tested) [4]: 4.38/4 score

COc1cccc(/C=C/C(=O)NC(=N)N)c1 [(3-Methoxycinnamoyl)guanidine]
229E E protein Inhibition (score) [5]: 1.4 score
Percent reduction in Plaque number/# experiments ([1]; 1 uM): 37/3%
Percent reduction in Plaque number/# experiments ([1]; 10 uM): 87/2%
Percent reduction in Plaque number/# experiments ([1]; 20 uM): 92/2%
SARS E protein Inhibition (score/# of times tested) [3]: 0.63/2 score
Vpu Inhibition (score/# of times tested) [4]: 1.52/6 score

N=C(N)NC(=O)/C=C/c1cccc([N+](=O)[O-])c1 [(3-Nitrocinnamoyl)guanidine]
229E E protein Inhibition (score) [5]: 0.1 score
Percent reduction in Plaque number/# experiments ([1]; 1 uM): 42/3%
Percent reduction in Plaque number/# experiments ([1]; 10 uM): 77/3%
Percent reduction in Plaque number/# experiments ([1]; 20 uM): 95/2%
SARS E protein Inhibition (score/# of times tested) [3]: 1.51/2 score
Vpu Inhibition (score/# of times tested) [4]: 0.9/1 score

N=C(N)NC(=O)/C=C/c1ccc(O)cc1 [(4-Hydroxycinnamoyl)guanidine]
229E E protein Inhibition (score) [5]: 0.6 score
Percent reduction in Plaque number/# experiments ([1]; 1 uM): 13/1%
Percent reduction in Plaque number/# experiments ([1]; 10 uM): 15/1%
Percent reduction in Plaque number/# experiments ([1]; 20 uM): 19/1%
SARS E protein Inhibition (score/# of times tested) [3]: 1.63/2 score
Vpu Inhibition (score/# of times tested) [4]: 1.1/2 score

COc1ccc(/C=C/C(=O)NC(=N)N)cc1 [(4-Methoxycinnamoyl)guanidine]
229E E protein Inhibition (score) [5]: 0.1 score
Percent reduction in Plaque number/# experiments ([1]; 1 uM): 51/3%
Percent reduction in Plaque number/# experiments ([1]; 10 uM): 96/4%
Percent reduction in Plaque number/# experiments ([1]; 20 uM): 98/4%
SARS E protein Inhibition (score/# of times tested) [3]: 0.88/2 score
Vpu Inhibition (score/# of times tested) [4]: 2.13/3 score

NC(N)=NC(=O)c1ccc(Oc2ccccc2)cc1 [(4-Phenoxybenzoyl)guanidine]
229E E protein Inhibition (score) [5]: 2.3 score
Percent reduction in Plaque number/# experiments ([1]; 1 uM): 32/1%
Percent reduction in Plaque number/# experiments ([1]; 10 uM): 65/1%
Percent reduction in Plaque number/# experiments ([1]; 20 uM): 73/1%
SARS E protein Inhibition (score/# of times tested) [3]: 0.57/2 score
Vpu Inhibition (score/# of times tested) [4]: 0.81/2 score

C/C(=C\c1ccccc1)C(=O)NC(=N)N [(a-Methylcinnamoyl)guanidine, (α-Methylcinnamoyl)guanidine]
229E E protein Inhibition (score) [5]: 1.0 score
Percent reduction in Plaque number/# experiments ([1]; 1 uM): 51/2%
Percent reduction in Plaque number/# experiments ([1]; 10 uM): 75/3%
Percent reduction in Plaque number/# experiments ([1]; 20 uM): 81/2%
SARS E protein Inhibition (score/# of times tested) [3]: 0.50/1 score
Vpu Inhibition (score/# of times tested) [4]: 0.6/2 score

Cl.N=C(N)NC(=O)/C=C/c1ccccc1 [cinnamoylguanidine hydrochloride]
229E E protein Inhibition (score) [5]: 0.5 score
Percent reduction in Plaque number/# experiments ([1]; 1 uM): 56/1%
Percent reduction in Plaque number/# experiments ([1]; 10 uM): 72/2%
Percent reduction in Plaque number/# experiments ([1]; 20 uM): 85/1%
SARS E protein Inhibition (score/# of times tested) [3]: 2.50/1 score
Vpu Inhibition (score/# of times tested) [4]: 0.6/2 score

— patent US11192863B2, “Antiviral compounds and methods” (Biotron Limited, priority 2003, dated 2021)
